Measured values: paper PMC6979384, “Characterization of the plant homeodomain (PHD) reader family for their histone tail interactions” (Epigenetics & Chromatin, 2020)
Where no end group is shown, it is not given here. [ ]: non-standard residue; d: D form. Lys(Me3) = C[N+](C)(C)CCCC[C@H](N)C(=O)O

How the values were obtained:
Assay in all cases: Histone peptide microarray
Format in all cases: binding, human
TAF3 = details: TAF3; sheet "Array Heatmap"; each array performed twice, total n = 4
In short: (§1)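 A peptide microarray holding 293 synthetic histone peptides with individual or combinatorial modifications was probed with each GST-PHD protein at 0.5 μM. Values represent mean intensity (±SD) from four replicates.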

ING2 = details: ING2; sheet "Array Heatmap"; each array performed twice, total n = 4
In short: as §1

BPTF (PB) = details: BPTF (PB); sheet "Array Heatmap"; each array performed twice, total n = 4
In short: as §1

AIRE (PP) = details: AIRE (PP); sheet "Array Heatmap"; each array performed twice, total n = 4
In short: as §1

MLL5 = details: MLL5; sheet "Array Heatmap"; each array performed twice, total n = 4
In short: as §1

CHD5 (PCC) = details: CHD5 (PCC); sheet "Array Heatmap"; each array performed twice, total n = 4
In short: as §1

PHF23 = details: PHF23; sheet "Array Heatmap"; each array performed twice, total n = 4
In short: as §1

KDM4C (TTP) = details: KDM4C (TTP); sheet "Array Heatmap"; each array performed twice, total n = 4
In short: as §1

PHF8 = details: PHF8; sheet "Array Heatmap"; each array performed twice, total n = 4
In short: as §1

TRIM66 (PB) = details: TRIM66 (PB); sheet "Array Heatmap"; each array performed twice, total n = 4
In short: as §1

PHF2 = details: PHF2; sheet "Array Heatmap"; each array performed twice, total n = 4
In short: as §1

DPF2 (PPC2W2) = details: DPF2 (PPC2W2); sheet "Array Heatmap"; each array performed twice, total n = 4
In short: as §1

ING3 = details: ING3; sheet "Array Heatmap"; each array performed twice, total n = 4
In short: as §1

ING5 = details: ING5; sheet "Array Heatmap"; each array performed twice, total n = 4
In short: as §1

CHD5 (PPCC) = details: CHD5 (PPCC); sheet "Array Heatmap"; each array performed twice, total n = 4
In short: as §1

SP140L = details: SP140L; sheet "Array Heatmap"; each array performed twice, total n = 4
In short: as §1

ING1 = details: ING1; sheet "Array Heatmap"; each array performed twice, total n = 4
In short: as §1

PHRF1 (RP) = details: PHRF1 (RP); sheet "Array Heatmap"; each array performed twice, total n = 4
In short: as §1

PHF13 = details: PHF13; sheet "Array Heatmap"; each array performed twice, total n = 4
In short: as §1

KDM5B (1) = details: KDM5B (1); sheet "Array Heatmap"; each array performed twice, total n = 4
In short: as §1

KDM5A (3) = details: KDM5A (3); sheet "Array Heatmap"; each array performed twice, total n = 4
In short: as §1

DIDO1 = details: DIDO1; sheet "Array Heatmap"; each array performed twice, total n = 4
In short: as §1

KDM7A = details: KDM7A; sheet "Array Heatmap"; each array performed twice, total n = 4
In short: as §1

KDM5B (3) = details: KDM5B (3); sheet "Array Heatmap"; each array performed twice, total n = 4
In short: as §1

KDM5A (1) = details: KDM5A (1); sheet "Array Heatmap"; each array performed twice, total n = 4
In short: as §1

MORC3 (CW) = details: MORC3 (CW); sheet "Array Heatmap"; each array performed twice, total n = 4
In short: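 Binding read as mean relative signal from 4 replicates; microarray held 293 synthetic histone peptides with single or combinatorial PTMs. Each GST-tagged PHD reader was applied at 0.5 μM using the optimized Petell protocol.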

BAZ2B = details: BAZ2B; sheet "Array Heatmap"; each array performed twice, total n = 4
In short: as §1

PHF21A = details: PHF21A; sheet "Array Heatmap"; each array performed twice, total n = 4
In short: as §1

CHD4 (PPCC) = details: CHD4 (PPCC); sheet "Array Heatmap"; each array performed twice, total n = 4
In short: as §1

RAG2 = details: RAG2; sheet "Array Heatmap"; each array performed twice, total n = 4
In short: as §1

ING4 = details: ING4; sheet "Array Heatmap"; each array performed twice, total n = 4
In short: as §1

Substance | Array Heatmap value (peptide array signal) (TAF3) | Array Heatmap value (peptide array signal) (ING2) | Array Heatmap value (peptide array signal) (BPTF (PB)) | Array Heatmap value (peptide array signal) (AIRE (PP)) | Array Heatmap value (peptide array signal) (MLL5) | Array Heatmap value (peptide array signal) (CHD5 (PCC)) | Array Heatmap value (peptide array signal) (PHF23) | Array Heatmap value (peptide array signal) (KDM4C (TTP)) | Array Heatmap value (peptide array signal) (PHF8) | Array Heatmap value (peptide array signal) (TRIM66 (PB)) | Array Heatmap value (peptide array signal) (PHF2) | Array Heatmap value (peptide array signal) (DPF2 (PPC2W2)) | Array Heatmap value (peptide array signal) (ING3) | Array Heatmap value (peptide array signal) (ING5) | Array Heatmap value (peptide array signal) (CHD5 (PPCC)) | Array Heatmap value (peptide array signal) (SP140L) | Array Heatmap value (peptide array signal) (ING1) | Array Heatmap value (peptide array signal) (PHRF1 (RP)) | Array Heatmap value (peptide array signal) (PHF13) | Array Heatmap value (peptide array signal) (KDM5B (1)) | other results
H3K4me3 (1-7): H3 1-7 (ART[Lys(Me3)]QTA; UniProt P68431 2-8, looked up, fragment) | 0.3574 | 0.6464 | 0.3708 | 0.5351 | 0.7048 | 0.8146 | 0.5369 | 0.5656 | 0.544 | 0.5289 | 0.4609 | 0.6324 | 0.472 | 0.4084 | 0.5698 | 0.3724 | 0.5185 | 0.3886 | 0.6272 | 0.7094 | Array Heatmap value (peptide array signal) (KDM5A (3)): 0.5067; Array Heatmap value (peptide array signal) (DIDO1): 0.6423; Array Heatmap value (peptide array signal) (KDM7A): 0.7221; Array Heatmap value (peptide array signal) (KDM5B (3)): 0.5187; Array Heatmap value (peptide array signal) (KDM5A (1)): 0.4902; Array Heatmap value (peptide array signal) (MORC3 (CW)): 0.489; Array Heatmap value (peptide array signal) (BAZ2B): 0.5069; Array Heatmap value (peptide array signal) (PHF21A): 0.4644; Array Heatmap value (peptide array signal) (CHD4 (PPCC)): 0.5649; Array Heatmap value (peptide array signal) (RAG2): 0.3345; Array Heatmap value (peptide array signal) (ING4): 0.4911
H3K4me3 (1-11): H3 1-11 | 0.3193 | 0.6411 | 0.3697 | 0.5119 | 0.6217 | 0.8101 | 0.5829 | 0.5306 | 0.4899 | 0.5622 | 0.5693 | 0.6949 | 0.5106 | 0.3839 | 0.5701 | 0.3833 | 0.5841 | 0.4768 | 0.6221 | 0.6584 | Array Heatmap value (peptide array signal) (KDM5A (3)): 0.6017; Array Heatmap value (peptide array signal) (DIDO1): 0.7285; Array Heatmap value (peptide array signal) (KDM7A): 0.4006; Array Heatmap value (peptide array signal) (KDM5B (3)): 0.5281; Array Heatmap value (peptide array signal) (KDM5A (1)): 0.5087; Array Heatmap value (peptide array signal) (MORC3 (CW)): 0.5155; Array Heatmap value (peptide array signal) (BAZ2B): 0.4805; Array Heatmap value (peptide array signal) (PHF21A): 0.5172; Array Heatmap value (peptide array signal) (CHD4 (PPCC)): 0.5943; Array Heatmap value (peptide array signal) (RAG2): 0.3044; Array Heatmap value (peptide array signal) (ING4): 0.465
